Read-outs that look alike come from different tables or passages of the source.
Tests used:
hCB2 receptor [1] = target: T1, hCB2 receptor (Homo sapiens, UniProt P34972); experiment: β-arrestin 2 recruitment assay; type: cell-based; conditions: for Emax: read-out: hCB2 receptor β-Arrestin 2 Emax
hCB2 receptor [2] = target: T1, hCB2 receptor; experiment: Inhibition of forskolin-stimulated cAMP accumulation, 3xHA-hCB2-CHO cells; type: cell-based; conditions: for Emax: read-out: hCB2 receptor cAMP Emax
Adult male CD1 mice [3] = experiment: Ring test for catalepsy; type: in vivo; conditions: for immobility time in the ring test vs vehicle: i.p., mice, overall
Adult male CD1 mice [4] = experiment: Tail-flick; type: in vivo; conditions: for tail-flick latency in the tail-immersion test vs vehicle: mice, overall
Adult male CD1 mice [5] = experiment: Measurement of rectal temperature; type: in vivo; conditions: for body temperature vs vehicle: i.p., mice
Adult male CD1 mice [6] = experiment: CFA-induced inflammatory pain model, mechanical paw withdrawal thresholds; type: in vivo; conditions: AM251 5 mg/kg i.p. alone, overall
hCB1 receptor [7] = target: T2, hCB1 receptor (Homo sapiens, UniProt P21554); experiment: cell-based; conditions: for Emax: read-out: hCB1 receptor cAMP Emax, normalized to maximum CP-55,940 = 100
T2 sequence (P21554 whole entry): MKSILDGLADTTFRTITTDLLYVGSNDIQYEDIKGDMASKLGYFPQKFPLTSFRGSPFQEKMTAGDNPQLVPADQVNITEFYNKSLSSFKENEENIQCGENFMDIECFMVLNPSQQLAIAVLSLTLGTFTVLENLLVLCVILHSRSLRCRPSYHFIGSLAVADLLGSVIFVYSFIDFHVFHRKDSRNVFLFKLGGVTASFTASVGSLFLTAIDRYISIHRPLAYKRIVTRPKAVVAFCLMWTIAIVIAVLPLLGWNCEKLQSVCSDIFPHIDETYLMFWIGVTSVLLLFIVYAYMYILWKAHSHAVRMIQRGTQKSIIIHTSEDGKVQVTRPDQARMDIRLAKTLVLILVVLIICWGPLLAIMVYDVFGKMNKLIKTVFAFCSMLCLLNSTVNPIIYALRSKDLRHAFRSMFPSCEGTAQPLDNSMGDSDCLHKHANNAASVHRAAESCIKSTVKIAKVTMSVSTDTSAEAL

hCB1 receptor [8] = target: T2, hCB1 receptor; experiment: cell-based; conditions: read-out: hCB1 receptor β-Arrestin 2 Emax
hCB2 receptor [9] = target: T1, hCB2 receptor; experiment: hCB2 radioligand binding assay, [3H]CP-55,940 competition, HEK293 membranes; conditions: for higher affinity for CB2 than the lead compound AMG315: ratio of Ki values
rCB1 receptor = rCB1 receptor (Rattus norvegicus, UniProt P20272); experiment: rCB1 radioligand binding assay, [3H]CP-55,940 competition; conditions: for increase in binding affinity for CB1 compared to lead AMG315: ratio of Ki values
rCB1 receptor, sequence (P20272 whole entry): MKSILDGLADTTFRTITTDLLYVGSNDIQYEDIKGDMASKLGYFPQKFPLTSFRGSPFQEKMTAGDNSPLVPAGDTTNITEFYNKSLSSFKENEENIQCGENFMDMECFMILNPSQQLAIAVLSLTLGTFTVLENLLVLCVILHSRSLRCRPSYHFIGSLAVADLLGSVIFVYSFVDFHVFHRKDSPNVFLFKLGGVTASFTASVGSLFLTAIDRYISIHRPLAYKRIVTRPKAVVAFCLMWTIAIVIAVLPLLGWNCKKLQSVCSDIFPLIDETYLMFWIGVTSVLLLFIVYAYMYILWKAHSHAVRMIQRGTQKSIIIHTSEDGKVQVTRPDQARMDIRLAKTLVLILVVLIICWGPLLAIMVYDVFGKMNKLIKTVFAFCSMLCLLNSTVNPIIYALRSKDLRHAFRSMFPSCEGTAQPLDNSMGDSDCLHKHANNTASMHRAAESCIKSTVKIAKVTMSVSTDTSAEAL

T1 sequence (P34972 whole entry): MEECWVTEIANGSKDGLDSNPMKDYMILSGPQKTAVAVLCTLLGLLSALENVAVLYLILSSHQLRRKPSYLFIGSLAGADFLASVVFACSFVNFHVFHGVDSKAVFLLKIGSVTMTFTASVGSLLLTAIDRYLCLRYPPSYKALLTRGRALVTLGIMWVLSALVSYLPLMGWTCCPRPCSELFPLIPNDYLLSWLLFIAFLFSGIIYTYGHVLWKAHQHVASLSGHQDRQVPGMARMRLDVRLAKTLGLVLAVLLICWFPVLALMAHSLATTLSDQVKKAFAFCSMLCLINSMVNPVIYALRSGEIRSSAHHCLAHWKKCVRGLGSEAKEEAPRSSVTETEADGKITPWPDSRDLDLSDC

## CCCCC/C=C\C/C=C\C/C=C\C/C=C\CCCC(=O)NCCO [AEA, N-arachidonoylethanolamide, reference compound]
hCB2 receptor [1]
  Emax: 36%
hCB2 receptor [2]
  Emax: 27%

## Cc1c(C(=O)NN2CCCCC2)nn(-c2ccc(Cl)cc2Cl)c1-c1ccc(I)cc1 [AM251, 1-(2,4-dichlorophenyl)-5-(4-iodophenyl)-4-methyl-N-1-piperidinyl-1H-pyrazole-3-carboxamide, reference compound]
Adult male CD1 mice [3]; AM251 5 mg/kg ip before AM12814 1 mg/kg ip
  effect of pretreatment on AM12814-induced catalepsy in the ring test: blocked
Adult male CD1 mice [4]; AM251 5 mg/kg i.p. before AM12814 3 mg/kg i.p.
  effect of pretreatment on tail-flick antinociception of AM12814: reduced the overall antinociceptive efficacy
Adult male CD1 mice [5]; AM251 5 mg/kg i.p. before AM12814 1 mg/kg i.p.
  effect of pretreatment on hypothermic effect of AM12814: abolished
Adult male CD1 mice [6]
  ipsilateral paw withdrawal thresholds, AM251-Veh vs Veh–Veh: modestly elevated

## CCCCC/C=C\[C@H](C)/C=C\C/C=C\C/C=C\CCCC(=O)N[C@H](C)CO [AMG315, (R)-N-(1-Methyl-2-hydroxyethyl)-13-(S)-methyl-arachidonamide, reference compound]
hCB1 receptor [7]
  Emax: 80.5%
hCB1 receptor [8]
  Emax: 38%
hCB2 receptor [1]
  Emax: 36%
hCB2 receptor [2]
  Emax: 18%

## C[C@H](/C=C\C/C=C\C/C=C\CCCC(=O)N[C@H](C)CO)/C=C\CCCCC(F)(F)F [Compound 12, (S,5Z,8Z,11Z,14Z)-20,20,20-Trifluoro-N-((R)-1-hydroxypropan-2-yl)-13-methylicosa-5,8,11,14-tetraenamide]
hCB1 receptor [7]; Emax cAMP vs Emax β-arrestin 2
  efficacy for the cyclase pathway relative to β-arrestin 2 recruitment in CB1: 3 fold
hCB1 receptor [7]; normalized to maximum CP-55,940 = 100
  hCB1 receptor cAMP Emax: 67.5%
hCB1 receptor [7]
  Emax: 67%
hCB1 receptor [8]
  Emax: 22%
hCB2 receptor [1]
  EC50: 5.6 nM
  Emax: 28%
Adult male CD1 mice [3]; 0.3 mg/kg
  immobility time in the ring test vs vehicle: did not differ reliably from vehicle overall
Adult male CD1 mice [3]; 1 mg/kg
  immobility time in the ring test vs vehicle: increased immobility time
Adult male CD1 mice [3]; 3 mg/kg
  immobility time in the ring test vs vehicle: increased immobility time
Adult male CD1 mice [4]; 1 mg/kg, i.p.
  tail-flick latency in the tail-immersion test vs vehicle: increased tail-flick latency
Adult male CD1 mice [4]; 3 mg/kg, i.p.
  tail-flick latency in the tail-immersion test vs vehicle: increased tail-flick latency
Adult male CD1 mice [4]; low dose, 0.1 mg/kg i.p.
  tail-flick latency in the tail-immersion test vs vehicle: increased tail-flick latency
hCB2 receptor [9]
  Ki: 3.4 nM
  higher affinity for CB2 than the lead compound AMG315: 52–80 fold
rCB1 receptor
  Ki: 0.7 nM
  increase in binding affinity for CB1 compared to lead AMG315: 10 fold
Adult male CD1 mice [5]; 0.3 mg/kg
  body temperature vs vehicle: did not alter body temperature at any postinjection time point
Adult male CD1 mice [5]; 1 mg/kg
  body temperature vs vehicle: reducing body temperature
Adult male CD1 mice [5]; 3 mg/kg
  body temperature vs vehicle: reducing body temperature
Adult male CD1 mice [5]; 1 or 3 mg/kg
  earliest time of reduced body temperature postinjection: 10 min
hCB2 receptor [2]
  EC50: 22 nM
  Emax: 29%

## C[C@H](/C=C\C/C=C\C/C=C\CCCC(=O)N[C@H](C)CO)/C=C\CCCCCBr [Compound 15, (S,5Z,8Z,11Z,14Z)-20-Bromo-N-((R)-1-hydroxypropan-2-yl)-13-methylicosa-5,8,11,14-tetraenamide]
hCB2 receptor [9]
  Ki: 5.3 nM
rCB1 receptor
  Ki: 1.1 nM
  increase in binding affinity for CB1 compared to lead AMG315: 2–7 fold

## C[C@H](/C=C\C/C=C\C/C=C\CCCC(=O)N[C@H](C)CO)/C=C\CCCCCC#N [Compound 16a, (S,5Z,8Z,11Z,14Z)-20-Cyano-N-((R)-1-hydroxypropan-2-yl)-13-methylicosa-5,8,11,14-tetraenamide]
hCB2 receptor [9]
  Ki: 2.2 nM
  higher affinity for CB2 than the lead compound AMG315: 52–80 fold
rCB1 receptor
  Ki: 1.4 nM
  increase in binding affinity for CB1 compared to lead AMG315: 2–7 fold

## C[C@H](/C=C\C/C=C\C/C=C\CCCC(=O)N[C@H](C)CO)/C=C\CCCCCO[N+](=O)[O-] [Compound 16b, (S,6Z,9Z,12Z,15Z)-20-(((R)-1-Hydroxypropan-2-yl)amino)-8-methyl-20-oxoicosa-6,9,12,15-tetraen-1-yl Nitrate]
hCB2 receptor [9]
  Ki: 10.9 nM
rCB1 receptor
  Ki: 1.7 nM
  increase in binding affinity for CB1 compared to lead AMG315: 2–7 fold

## C[C@H](/C=C\C/C=C\C/C=C\CCCC(=O)N[C@H](C)CO)/C=C\CCCCCO [Compound 18, (S,5Z,8Z,11Z,14Z)-20-Hydroxy-N-((R)-1-hydroxypropan-2-yl)-13-methylicosa-5,8,11,14-tetraenamide]
rCB1 receptor; read-out: rCB1 receptor Ki, rat brain membranes, [3H]CP-55,940, (± 95% CI)
  Ki: 29 nM

## C[C@H](/C=C\C/C=C\C/C=C\CCCC(=O)N[C@H](C)CO)/C=C\CCCCCF [Compound 21, (S,5Z,8Z,11Z,14Z)-20-Fluoro-N-((R)-1-hydroxypropan-2-yl)-13-methylicosa-5,8,11,14-tetraenamide]
hCB2 receptor [9]
  Ki: 22.2 nM
rCB1 receptor
  Ki: 4.2 nM
  increase in binding affinity for CB1 compared to lead AMG315: 2–7 fold
